Assays:
[1] = molecular target: Opioid receptors; delta & kappa (Homo sapiens) (UniProt P41145+P41143); experiment: Selectivity for cloned human delta opioid receptor over kappa opioid receptor; type: protein assay
[2] = molecular target: Delta-type opioid receptor (Homo sapiens) (UniProt P41143)
Description: Inhibition of DPDPE stimulated [35S]GTP-gamma-S binding to cloned human delta opioid receptor

[3] = molecular target: Kappa-type opioid receptor (Homo sapiens) (UniProt P41145)
Description: Inhibition of U69,593 stimulated [35S]GTP-gamma-S binding to cloned human kappa opioid receptor

[4] = molecular target: Opioid receptors; mu & kappa (Homo sapiens) (UniProt P41145+P35372); experiment: Selectivity for cloned human mu opioid receptor over kappa opioid receptor; type: protein assay
Sequence of Opioid receptors; mu & kappa (Homo sapiens) (P35372 whole entry, looked up): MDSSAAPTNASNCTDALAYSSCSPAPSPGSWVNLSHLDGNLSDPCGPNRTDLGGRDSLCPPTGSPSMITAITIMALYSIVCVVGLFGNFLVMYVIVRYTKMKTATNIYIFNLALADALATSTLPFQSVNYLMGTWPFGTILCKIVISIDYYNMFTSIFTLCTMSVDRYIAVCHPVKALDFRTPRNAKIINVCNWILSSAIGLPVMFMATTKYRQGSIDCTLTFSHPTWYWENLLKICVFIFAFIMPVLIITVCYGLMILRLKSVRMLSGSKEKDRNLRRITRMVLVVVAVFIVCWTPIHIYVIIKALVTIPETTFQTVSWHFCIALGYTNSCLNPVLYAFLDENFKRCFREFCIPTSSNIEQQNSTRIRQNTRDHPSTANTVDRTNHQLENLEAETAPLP
Sequence of Opioid receptors; mu & kappa (Homo sapiens) (P41145 whole entry, looked up): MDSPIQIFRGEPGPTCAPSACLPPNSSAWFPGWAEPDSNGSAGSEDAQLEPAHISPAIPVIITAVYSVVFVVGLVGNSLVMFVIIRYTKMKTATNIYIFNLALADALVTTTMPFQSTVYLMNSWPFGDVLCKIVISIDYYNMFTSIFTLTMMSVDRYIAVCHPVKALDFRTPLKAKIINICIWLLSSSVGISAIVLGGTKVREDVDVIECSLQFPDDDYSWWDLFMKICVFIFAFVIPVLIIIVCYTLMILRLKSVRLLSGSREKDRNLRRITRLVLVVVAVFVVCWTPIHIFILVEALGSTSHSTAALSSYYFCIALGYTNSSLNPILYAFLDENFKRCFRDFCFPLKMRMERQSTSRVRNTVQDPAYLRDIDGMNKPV

[5] = molecular target: Mu-type opioid receptor (Homo sapiens) (UniProt P35372)
Sequence of Mu-type opioid receptor (Homo sapiens) (P35372 whole entry): as the sequence (P35372 whole entry, looked up) above
Description: Inhibition of DAMGO stimulated [35S]GTP-gamma-S binding to cloned human mu opioid receptor

Sequence of Delta-type opioid receptor (Homo sapiens) (P41143 whole entry): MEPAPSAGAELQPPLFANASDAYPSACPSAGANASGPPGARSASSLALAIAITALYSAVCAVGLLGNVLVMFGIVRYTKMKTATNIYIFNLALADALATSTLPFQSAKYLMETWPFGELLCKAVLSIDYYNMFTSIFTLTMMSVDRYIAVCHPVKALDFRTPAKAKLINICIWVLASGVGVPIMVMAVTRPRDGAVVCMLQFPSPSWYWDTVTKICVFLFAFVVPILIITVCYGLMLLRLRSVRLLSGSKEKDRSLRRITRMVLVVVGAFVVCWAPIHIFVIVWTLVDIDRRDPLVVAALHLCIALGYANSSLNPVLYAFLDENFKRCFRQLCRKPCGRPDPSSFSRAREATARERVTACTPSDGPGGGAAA
Sequence of Opioid receptors; delta & kappa (Homo sapiens) (P41143 whole entry, looked up): as the sequence (P41143 whole entry) above
Sequence of Opioid receptors; delta & kappa (Homo sapiens) (P41145 whole entry, looked up): as the sequence (P41145 whole entry, looked up) above
Sequence of Kappa-type opioid receptor (Homo sapiens) (P41145 whole entry): as the sequence (P41145 whole entry, looked up) above

| SMILES | Ratio Ke [1] | Ke [2] | Ke [3] | Ratio Ke [4] | Ke [5] |
| --- | --- | --- | --- | --- | --- |
| CN1CC[C@]2(c3cccc(O)c3)CCCC[C@]2(C)C1 | 141 | 477 nM | 3.37 nM | 29 | 99.4 nM |
| C[C@H]1CN(CC[C@H](O)C2CCCCC2)CC[C@@]1(C)c1cccc(O)c1 | – | 0.6 nM | – | – | 0.1 nM |
| C[C@]12CC[C@@H](NC(=O)C3(c4ccccc4)CCCC3)C[C@@]1(c1cccc(O)c1)CCN(CCCc1ccccc1)C2 | 3 | 6.46 nM | 1.93 nM | 0.8 | 1.46 nM |
| Oc1ccc2c3c1O[C@H]1c4[nH]c5c(c4C[C@@]4(O)[C@@H](C2)N(CC2CC2)CC[C@]314)C[C@@]1(O)[C@H]2Cc3ccc(O)c4c3[C@@]1(CCN2CC1CC1)[C@H]5O4 | 110 | – | – | 475 | – |
| C[C@]12CCCC[C@@]1(c1cccc(O)c1)CCN(CCCc1ccccc1)C2 (relative stereo) | 12 | 12.4 nM | 1.03 nM | 0.8 | 0.8 nM |
| C[C@]12CCCC[C@@]1(c1cccc(O)c1)CCN(CCc1ccccc1)C2 (relative stereo) | 7 | 18.9 nM | 2.84 nM | 0.3 | 0.84 nM |
| C[C@]12CC[C@@H](NC(=O)CCN3CCCCC3)C[C@@]1(c1cccc(O)c1)CCN(CCCc1ccccc1)C2 (relative stereo) | 46 | 12.3 nM | 0.27 nM | 154 | 41.7 nM |
| C[C@]12CC[C@@H](NC(=O)CCN3CCc4ccccc4C3)C[C@@]1(c1cccc(O)c1)CCN(CCCc1ccccc1)C2 (relative stereo) | 21 | 4.56 nM | 0.22 nM | 45 | 9.82 nM |
| C[C@]12CC[C@@H](NC(=O)c3cc4ccccc4s3)C[C@@]1(c1cccc(O)c1)CCN(CCCc1ccccc1)C2 (relative stereo) | 2 | 1.01 nM | 0.46 nM | 25 | 11.3 nM |
